Measurements as given in US12252524B2, “GIP/GLP1 co-agonist compounds” (Eli Lilly and Company, priority 2018, dated 2025).
Numbered stars: 1 amine (or outer) side, 2 acyl side, 3 side chain; on linkers, the order of the positions; unused ones are H or OH. Square brackets hold non-standard residues; d marks the D form. Side chains are listed from the residue outwards. Peptide text beside a SMILES is read from it. * marks the point of attachment. C20 diacid = O=C(O)CCCCCCCCCCCCCCCCCCC(=O)*; αMePhe(2-F) = C[C@](N)(Cc1ccccc1F)C(=O)O; γGlu = O=C(O)[C@H](CCC(=O)[*:2])N[*:1]; αMeY = C[C@](N)(Cc1ccc(O)cc1)C(=O)O; αMeF = C[C@](N)(Cc1ccccc1)C(=O)O; 2Pal = N[C@@H](Cc1ccccn1)C(=O)O; 4Pal = N[C@@H](Cc1ccncc1)C(=O)O; αMeL = CC(C)C[C@](C)(N)C(=O)O; Orn = NCCC[C@H](N)C(=O)O; AEEA = NCCOCCOCC(=O)O; Aib = CC(C)(N)C(=O)O

Columns and labels:
[1] = molecular target: T1, gastric inhibitory peptide receptor (GIPR) (Homo sapiens, UniProt P48546); experiment: cAMP pharmacological functional assay in presence of casein, hGIPR; type: cell-based; details: HEK293 cells expressing hGIPR, 0.1% Casein, geometric mean; read-out: hGIPR cAMP Rel EC50 nM (SEM, n)
T1 sequence (P48546 22-466): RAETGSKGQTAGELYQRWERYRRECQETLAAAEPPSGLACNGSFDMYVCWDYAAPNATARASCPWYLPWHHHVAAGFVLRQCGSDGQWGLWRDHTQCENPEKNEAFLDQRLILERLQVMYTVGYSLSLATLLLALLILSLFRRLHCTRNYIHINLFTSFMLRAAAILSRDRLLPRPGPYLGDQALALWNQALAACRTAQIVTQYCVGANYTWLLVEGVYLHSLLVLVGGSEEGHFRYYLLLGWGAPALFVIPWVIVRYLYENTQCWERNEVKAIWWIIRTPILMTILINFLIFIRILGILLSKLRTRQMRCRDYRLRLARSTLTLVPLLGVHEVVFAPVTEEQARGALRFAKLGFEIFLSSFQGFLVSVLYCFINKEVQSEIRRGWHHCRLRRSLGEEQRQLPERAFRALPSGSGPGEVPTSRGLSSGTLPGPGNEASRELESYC

[2] = molecular target: human GLP-1 receptor (GLP-1R) (Homo sapiens, UniProt P43220); experiment: cAMP pharmacological functional assay in presence of casein, hGLP-1R; type: cell-based; details: HEK293 cells expressing hGLP-1R, 0.1% Casein, geometric mean; read-out: hGLP1R cAMP Rel EC50 nM (SEM, n)
human GLP-1 receptor (GLP-1R), sequence (P43220 24-463): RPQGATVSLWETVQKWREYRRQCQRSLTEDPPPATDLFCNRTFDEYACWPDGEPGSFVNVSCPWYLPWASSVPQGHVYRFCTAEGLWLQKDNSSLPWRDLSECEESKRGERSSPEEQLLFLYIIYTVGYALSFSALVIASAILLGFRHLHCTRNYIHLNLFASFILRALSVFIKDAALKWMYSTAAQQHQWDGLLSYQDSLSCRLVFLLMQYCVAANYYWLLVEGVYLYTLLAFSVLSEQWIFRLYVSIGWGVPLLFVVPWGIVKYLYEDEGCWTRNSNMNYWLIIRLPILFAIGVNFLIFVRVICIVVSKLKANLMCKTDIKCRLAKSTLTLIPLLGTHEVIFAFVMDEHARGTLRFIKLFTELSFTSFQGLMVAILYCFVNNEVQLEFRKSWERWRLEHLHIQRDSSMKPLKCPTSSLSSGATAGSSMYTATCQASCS

| SMILES | EC50 [1] [nM] | EC50 [2] [nM] |
| --- | --- | --- |
| CC[C@H](C)[C@H](NC(=O)[C@H](CC(C)C)NC(=O)[C@H](Cc1ccc(O)cc1)NC(=O)[C@@H](CCC(=O)O)NC(=O)[C@@H](NC(=O)[C@H](Cc1ccccc1)NC(=O)[C@@H](NC(=O)C(C)(C)NC(=O)[C@H](CCC(N)=O)NC(=O)[C@H](C)NC(=O)[C@H](CCCCNC(=O)COCCOCCNC(=O)COCCOCCNC(=O)CCCCCCCCCCCCCCCCCCC(=O)O)NC(=O)[C@H](CCC(=O)O)NC(=O)[C@H](CC(=O)O)NC(=O)[C@H](CC(C)C)NC(=O)[C@](C)(CC(C)C)NC(=O)[C@@H](NC(=O)[C@H](CO)NC(=O)[C@H](Cc1c[nH]cn1)NC(=O)[C@H](CC(=O)O)NC(=O)[C@H](CO)NC(=O)[C@@H](NC(=O)[C@](C)(Cc1ccccc1F)NC(=O)[C@@H](NC(=O)CNC(=O)[C@H](CCC(=O)O)NC(=O)C(C)(C)NC(=O)[C@@H](N)Cc1ccc(O)cc1)[C@@H](C)O)[C@@H](C)O)[C@@H](C)CC)[C@@H](C)O)[C@@H](C)CC)C(=O)N[C@@H](CCC(=O)O)C(=O)NCC(=O)NCC(=O)N1CCC[C@H]1C(=O)N[C@@H](CO)C(=O)N[C@@H](CO)C(=O)NCC(=O)N[C@@H](C)C(=O)N1CCC[C@H]1C(=O)N1CCC[C@H]1C(=O)N1CCC[C@H]1C(=O)N[C@@H](CO)C(N)=O [Example 174] (H-Y[Aib]EGT[αMePhe(2-F)]TSDHSI[αMeL]LDEK([AEEA-AEEA-C20 diacid])AQ[Aib]TFI[dE]YLIEGGPSSGAPPPS-NH2) | 0.217 | 0.472 |
| CC[C@H](C)[C@H](NC(=O)[C@H](CC(C)C)NC(=O)[C@](C)(Cc1ccc(O)cc1)NC(=O)[C@@H](CCC(=O)O)NC(=O)[C@@H](NC(=O)[C@H](Cc1ccccc1)NC(=O)[C@H](CCC(=O)O)NC(=O)C(C)(C)NC(=O)[C@H](CCC(N)=O)NC(=O)[C@H](C)NC(=O)[C@H](CCCCN)NC(=O)[C@H](CCCN)NC(=O)[C@H](CC(=O)O)NC(=O)[C@H](CC(C)C)NC(=O)[C@](C)(CC(C)C)NC(=O)[C@@H](NC(=O)[C@H](CO)NC(=O)[C@H](Cc1ccncc1)NC(=O)[C@H](CC(=O)O)NC(=O)[C@H](CO)NC(=O)[C@@H](NC(=O)[C@](C)(Cc1ccccc1F)NC(=O)[C@@H](NC(=O)CNC(=O)[C@H](CCC(=O)O)NC(=O)C(C)(C)NC(=O)[C@@H](N)Cc1ccc(O)cc1)[C@@H](C)O)[C@@H](C)O)[C@@H](C)CC)[C@@H](C)CC)C(=O)N[C@@H](CCC(=O)O)C(=O)NCC(=O)NCC(=O)N1CCC[C@H]1C(=O)N[C@@H](CO)C(=O)N[C@@H](CO)C(=O)NCC(=O)N[C@@H](C)C(=O)N1CCC[C@H]1C(=O)N1CCC[C@H]1C(=O)N1CCC[C@H]1C(=O)N[C@@H](CO)C(N)=O [Example 284] (H-Y[Aib]EGT[αMePhe(2-F)]TSD[4Pal]SI[αMeL]LD[Orn]KAQ[Aib]EFI[dE][αMeY]LIEGGPSSGAPPPS-NH2) | 0.113 | 0.0462 |
| CC[C@H](C)[C@H](NC(=O)[C@H](CCCCN)NC(=O)[C@H](CC(=O)O)NC(=O)[C@H](CC(C)C)NC(=O)[C@H](CC(C)C)NC(=O)[C@@H](NC(=O)[C@H](CO)NC(=O)[C@H](CCCCNC(=O)COCCOCCNC(=O)COCCOCCNC(=O)CC[C@H](NC(=O)CCCCCCCCCCCCCCCCCCC(=O)O)C(=O)O)NC(=O)[C@H](CC(=O)O)NC(=O)[C@H](CO)NC(=O)[C@@H](NC(=O)[C@H](Cc1ccccc1)NC(=O)[C@@H](NC(=O)CNC(=O)[C@H](CCC(=O)O)NC(=O)C(C)(C)NC(=O)[C@@H](N)Cc1ccc(O)cc1)[C@@H](C)O)[C@@H](C)O)[C@@H](C)CC)C(=O)N[C@@H](C)C(=O)N[C@@H](CCC(N)=O)C(=O)NC(C)(C)C(=O)N[C@@H](C)C(=O)N[C@@H](Cc1ccccc1)C(=O)N[C@H](C(=O)N[C@@H](CCC(=O)O)C(=O)N[C@@H](Cc1ccc(O)cc1)C(=O)N[C@@H](CC(C)C)C(=O)N[C@H](C(=O)N[C@@H](CCC(=O)O)C(=O)NCC(=O)NCC(N)=O)[C@@H](C)CC)[C@@H](C)CC [Example 70] (H-Y[Aib]EGTFTSDK([AEEA-AEEA-γGlu-C20 diacid])SILLDKIAQ[Aib]AFIEYLIEGG-NH2; N-terminus assumed) | 0.48 | 0.283 |
| CC[C@H](C)[C@H](NC(=O)[C@H](CC(C)C)NC(=O)[C@H](Cc1ccc(O)cc1)NC(=O)[C@H](CCC(=O)O)NC(=O)[C@@H](NC(=O)[C@H](Cc1ccccc1)NC(=O)[C@@H](NC(=O)C(C)(C)NC(=O)[C@H](CCC(N)=O)NC(=O)[C@H](C)NC(=O)[C@H](CCCCNC(=O)COCCOCCNC(=O)COCCOCCNC(=O)CC[C@H](NC(=O)CCCCCCCCCCCCCCCCCCC(=O)O)C(=O)O)NC(=O)[C@H](CCCCN)NC(=O)[C@H](CC(=O)O)NC(=O)[C@H](CC(C)C)NC(=O)[C@](C)(CC(C)C)NC(=O)[C@@H](NC(=O)[C@H](CO)NC(=O)[C@H](Cc1ccc(O)cc1)NC(=O)[C@H](CC(=O)O)NC(=O)[C@H](CO)NC(=O)[C@@H](NC(=O)[C@](C)(Cc1ccccc1)NC(=O)[C@@H](NC(=O)CNC(=O)[C@H](CCC(=O)O)NC(=O)C(C)(C)NC(=O)[C@@H](N)Cc1ccc(O)cc1)[C@@H](C)O)[C@@H](C)O)[C@@H](C)CC)[C@@H](C)CC)[C@@H](C)CC)C(=O)N[C@@H](CCC(=O)O)C(=O)NCC(=O)NCC(=O)N1CCC[C@H]1C(=O)N[C@@H](CO)C(=O)N[C@@H](CO)C(=O)NCC(=O)N[C@@H](C)C(=O)N1CCC[C@H]1C(=O)N1CCC[C@H]1C(=O)N1CCC[C@H]1C(=O)N[C@@H](CO)C(N)=O [Example 141] (H-Y[Aib]EGT[αMeF]TSDYSI[αMeL]LDKK([AEEA-AEEA-γGlu-C20 diacid])AQ[Aib]IFIEYLIEGGPSSGAPPPS-NH2; N-terminus assumed) | 0.2 | 0.0975 |
| CC[C@H](C)[C@H](NC(=O)[C@H](CC(C)C)NC(=O)[C@H](Cc1ccc(O)cc1)NC(=O)[C@H](CCC(=O)O)NC(=O)[C@@H](NC(=O)[C@H](Cc1ccccc1)NC(=O)[C@H](C)NC(=O)C(C)(C)NC(=O)[C@H](CCC(N)=O)NC(=O)[C@H](C)NC(=O)[C@H](CCCCNC(=O)COCCOCCNC(=O)COCCOCCNC(=O)CC[C@H](NC(=O)CCCCCCCCCCCCCCCCCCC(=O)O)C(=O)O)NC(=O)[C@H](CCCCN)NC(=O)[C@H](CC(=O)O)NC(=O)[C@H](CC(C)C)NC(=O)[C@H](CC(C)C)NC(=O)[C@@H](NC(=O)[C@H](CO)NC(=O)[C@H](Cc1ccc(O)cc1)NC(=O)[C@H](CC(=O)O)NC(=O)[C@H](CO)NC(=O)[C@@H](NC(=O)[C@](C)(Cc1ccccc1)NC(=O)[C@@H](NC(=O)CNC(=O)[C@H](CCC(=O)O)NC(=O)C(C)(C)NC(=O)[C@@H](N)Cc1ccc(O)cc1)[C@@H](C)O)[C@@H](C)O)[C@@H](C)CC)[C@@H](C)CC)C(=O)N[C@@H](CCC(=O)O)C(=O)NCC(=O)NCC(N)=O [Example 98] (H-Y[Aib]EGT[αMeF]TSDYSILLDKK([AEEA-AEEA-γGlu-C20 diacid])AQ[Aib]AFIEYLIEGG-NH2) | 0.0718 | 0.157 |
| CC[C@H](C)[C@H](NC(=O)[C@H](CC(C)C)NC(=O)[C@](C)(Cc1ccc(O)cc1)NC(=O)[C@@H](CCC(=O)O)NC(=O)[C@@H](NC(=O)[C@H](Cc1ccccc1)NC(=O)[C@H](CCC(=O)O)NC(=O)C(C)(C)NC(=O)[C@H](CCC(N)=O)NC(=O)[C@H](C)NC(=O)[C@H](CCCCN)NC(=O)[C@H](CCCN)NC(=O)[C@H](CC(=O)O)NC(=O)[C@H](CC(C)C)NC(=O)[C@](C)(CC(C)C)NC(=O)[C@@H](NC(=O)[C@H](CO)NC(=O)[C@H](Cc1ccncc1)NC(=O)[C@H](CC(=O)O)NC(=O)[C@H](CO)NC(=O)[C@@H](NC(=O)[C@](C)(Cc1ccccc1F)NC(=O)[C@@H](NC(=O)CNC(=O)[C@H](CCC(=O)O)NC(=O)C(C)(C)NC(=O)[C@@H](N)Cc1ccc(O)cc1)[C@@H](C)O)[C@@H](C)O)[C@@H](C)CC)[C@@H](C)CC)C(=O)N[C@@H](CCC(=O)O)C(=O)NCC(=O)NCC(=O)N1CCC[C@H]1C(=O)N[C@@H](CO)C(=O)N[C@@H](CO)C(=O)NCC(=O)N[C@@H](C)C(=O)N1CCC[C@H]1C(=O)N1CCC[C@H]1C(=O)N1CCC[C@H]1C(=O)N[C@@H](CO)C(=O)N[C@@H](CS)C(N)=O [Example 286] (H-Y[Aib]EGT[αMePhe(2-F)]TSD[4Pal]SI[αMeL]LD[Orn]KAQ[Aib]EFI[dE][αMeY]LIEGGPSSGAPPPSC-NH2) | 0.184 | 0.0602 |
| CC[C@H](C)[C@H](NC(=O)[C@H](CC(C)C)NC(=O)[C@H](Cc1ccc(O)cc1)NC(=O)[C@H](CCC(=O)O)NC(=O)[C@@H](NC(=O)[C@H](Cc1ccccc1)NC(=O)[C@H](CCC(=O)O)NC(=O)C(C)(C)NC(=O)[C@H](CCC(N)=O)NC(=O)[C@H](C)NC(=O)[C@H](CCCCNC(=O)COCCOCCNC(=O)COCCOCCNC(=O)CC[C@H](NC(=O)CCCCCCCCCCCCCCCCCCC(=O)O)C(=O)O)NC(=O)[C@H](CCC(=O)O)NC(=O)[C@H](CC(=O)O)NC(=O)[C@H](CC(C)C)NC(=O)[C@](C)(CC(C)C)NC(=O)[C@@H](NC(=O)[C@H](CO)NC(=O)[C@H](Cc1ccccn1)NC(=O)[C@H](CC(=O)O)NC(=O)[C@H](CO)NC(=O)[C@@H](NC(=O)[C@](C)(Cc1ccccc1F)NC(=O)[C@@H](NC(=O)CNC(=O)[C@H](CCC(=O)O)NC(=O)C(C)(C)NC(=O)[C@@H](N)Cc1ccc(O)cc1)[C@@H](C)O)[C@@H](C)O)[C@@H](C)CC)[C@@H](C)CC)C(=O)N[C@@H](CCC(=O)O)C(=O)NCC(=O)NCC(=O)N1CCC[C@H]1C(=O)N[C@@H](CO)C(=O)N[C@@H](CO)C(=O)NCC(=O)N[C@@H](C)C(=O)N1CCC[C@H]1C(=O)N1CCC[C@H]1C(=O)N1CCC[C@H]1C(=O)N[C@@H](CO)C(N)=O [Example 156] (H-Y[Aib]EGT[αMePhe(2-F)]TSD[2Pal]SI[αMeL]LDEK([AEEA-AEEA-γGlu-C20 diacid])AQ[Aib]EFIEYLIEGGPSSGAPPPS-NH2) | > 30 | 0.638 |
